Data as given in US9695155B2, “Herbicidal substituted pyrimidinyloxy benzene compounds” (E. I. DU PONT DE NEMOURS AND COMPANY, priority 2013, dated 2017).

Assays:
barnyardgrass [1] = assay: Test A preemergence; type: in vivo, Echinochloa crus-galli; conditions: for Barnyardgrass plant response rating: 1000 g ai/ha, 0 to 100 scale, 0 no effect, 100 complete control, approx. 10 days
Method in brief: (§1)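 Pre- and postemergence greenhouse screen. Soil: loam + sand. Spray carrier: solvent mixture, non-phytotoxic, with surfactant. Post timing at 1–2 leaves, height 2–10 cm. Readout: visual injury on a 0–100 scale roughly 10 days after application, untreated plants as reference.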

pigweed [2] = assay: Test A postemergence; type: in vivo, Amaranthus retroflexus; conditions: 0 to 100 scale, 0 no effect, 100 complete control
Method in brief: as §1

Italian ryegrass [3] = assay: Test A preemergence; type: in vivo, Lolium multiflorum; conditions: for Ryegrass, Italian plant response rating: 1000 g ai/ha, 0 to 100 scale, 0 no effect, 100 complete control, approx. 10 days
Method in brief: as §1

Heteranthera limosa = assay: Test B flooded paddy test; type: in vivo; conditions: Flood, 250 g ai/ha; 0 to 100 scale where 0 is no effect and 100 is complete control
Method in brief: (§2)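 Seedlings are raised to two leaves, flooded to a depth of 3 cm and dosed by adding the compound to the floodwater. Water level is kept constant, and plants are scored visually versus controls 13–15 days later (0 = no effect, 100 = complete control).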

ragweed [4] = assay: Test A postemergence; type: in vivo, Ambrosia elatior; conditions: 0 to 100 scale, 0 no effect, 100 complete control
Description: (§3) Seeds of plant species selected from barnyardgrass (Echinochloa crus-galli), kochia (Kochia scoparia), ragweed (common ragweed, Ambrosia elatior), Italian ryegrass (Lolium multiflorum), large (Lg) crabgrass (Digitaria sanguinalis), giant foxtail (Setaria faberii), morningglory (Ipomoea spp.), pigweed (Amaranthus retroflexus), velvetleaf (Abutilon theophrasti), wheat (Triticum aestivum), and corn (Zea mays) were planted into a blend of loam soil and sand and treated preemergence with a directed soil spray using test chemicals formulated in a non-phytotoxic solvent mixture which included a surfactant.
(§4) At the same time, plants selected from these crop and weed species and also blackgrass (Alopecurus myosuroides), and galium (catchweed bedstraw, Galium aparine) were planted in pots containing the same blend of loam soil and sand and treated with postemergence applications of test chemicals formulated in the same manner. Plants ranged in height from 2 to 10 cm and were in the one- to two-leaf stage for the postemergence treatment. Treated plants and untreated controls were maintained in a greenhouse for approximately 10 days, after which time all treated plants were compared to untreated controls and visually evaluated for injury. Plant response ratings, summarized in Table A, are based on a 0 to 100 scale where 0 is no effect and 100 is complete control. A dash (-) response means no test result.

kochia [5] = assay: Test A postemergence; type: in vivo, Kochia scoparia
Description: as §3, §4

rice = assay: Test B flooded paddy test; type: in vivo, Oryza sativa; conditions: Flood, 250 g ai/ha; 0 to 100 scale where 0 is no effect and 100 is complete control
Method in brief: as §2

galium = assay: Test A postemergence; type: in vivo, Galium aparine
Method in brief: as §1

giant foxtail [6] = assay: Test A preemergence; type: in vivo, Setaria faberii; conditions: for Foxtail, Giant plant response rating: 1000 g ai/ha, 0 to 100 scale, 0 no effect, 100 complete control, approx. 10 days
Method in brief: as §1

corn = assay: Test A postemergence; type: in vivo, Zea mays
Method in brief: as §1

wheat = assay: Test A postemergence; type: in vivo, Triticum aestivum; conditions: 0 to 100 scale, 0 no effect, 100 complete control
Method in brief: as §1

ragweed [7] = assay: Test A preemergence; type: in vivo, Ambrosia elatior; conditions: for Ragweed plant response rating: 1000 g ai/ha, 0 to 100 scale, 0 no effect, 100 complete control, approx. 10 days
Method in brief: as §1

blackgrass = assay: Test A postemergence; type: in vivo, Alopecurus myosuroides
Description: as §3, §4

giant foxtail [8] = assay: Test A postemergence; type: in vivo, Setaria faberii
Method in brief: as §1

pigweed [9] = assay: Test A preemergence; type: in vivo, Amaranthus retroflexus; conditions: for Pigweed plant response rating: 1000 g ai/ha, 0 to 100 scale, 0 no effect, 100 complete control, approx. 10 days
Method in brief: as §1

Italian ryegrass [10] = assay: Test A postemergence; type: in vivo, Lolium multiflorum; conditions: 0 to 100 scale, 0 no effect, 100 complete control
Description: as §3, §4

kochia [11] = assay: Test A preemergence; type: in vivo, Kochia scoparia; conditions: for Kochia plant response rating: 1000 g ai/ha, 0 to 100 scale, 0 no effect, 100 complete control, approx. 10 days
Description: as §3, §4

barnyardgrass [12] = assay: Test B flooded paddy test; type: in vivo, Echinochloa crus-galli; conditions: Flood, 250 g ai/ha; 0 to 100 scale where 0 is no effect and 100 is complete control
Method in brief: as §2

barnyardgrass [13] = assay: Test A postemergence; type: in vivo, Echinochloa crus-galli
Method in brief: as §1

sedge, umbrella = assay: Test B flooded paddy test; type: in vivo, Cyperus difformis; conditions: Flood, 250 g ai/ha; 0 to 100 scale where 0 is no effect and 100 is complete control
Method in brief: as §2

[14] = 125 g ai/ha, 0 to 100 scale where 0 is no effect and 100 is complete control
[15] = 31 g ai/ha, 0 to 100 scale, 0 no effect, 100 complete control
[16] = 1000 g ai/ha, 0 to 100 scale, 0 no effect, 100 complete control

FCCc1cn(-c2c(F)cccc2Oc2ncc(Cl)cn2)nn1 [Compound 108]
Barnyardgrass plant response rating (0 to 100 scale) (barnyardgrass [1]; 31 g ai/ha): 10
Plant response rating, Barnyardgrass (barnyardgrass [1]; [14]): 70
Plant response rating, Pigweed (pigweed [2]; 31 g ai/ha): 50
Ryegrass, Italian plant response rating (0 to 100 scale) (Italian ryegrass [3]; 31 g ai/ha): 0
Plant response rating, Ryegrass, Italian (Italian ryegrass [3]; [14]): 30
Plant response rating, Ducksalad (Heteranthera limosa): 85
Plant response rating, Ragweed (ragweed [4]; 31 g ai/ha): 20
Plant response rating, Kochia (kochia [5]; [15]): 70
Plant response rating, Kochia (kochia [5]; [14]): 90
Plant response rating, Rice (rice): 35
Plant response rating, Galium (galium; [15]): 70
Plant response rating, Galium (galium; [14]): 90
Foxtail, Giant plant response rating (0 to 100 scale) (giant foxtail [6]; 31 g ai/ha): 20
Plant response rating, Foxtail, Giant (giant foxtail [6]; [14]): 90
Plant response rating, Corn (corn; [15]): 20
Plant response rating, Corn (corn; [14]): 30
Plant response rating, Wheat (wheat; 31 g ai/ha): 10
Ragweed plant response rating (0 to 100 scale) (ragweed [7]; 31 g ai/ha): 70
Plant response rating, Ragweed (ragweed [7]; [14]): 80
Plant response rating, Blackgrass (blackgrass; [15]): 30
Plant response rating, Blackgrass (blackgrass; [14]): 80
Plant response rating, Foxtail, Giant (giant foxtail [8]; [15]): 20
Plant response rating, Foxtail, Giant (giant foxtail [8]; [14]): 70
Pigweed plant response rating (0 to 100 scale) (pigweed [9]; 31 g ai/ha): 90
Plant response rating, Pigweed (pigweed [9]; [14]): 100
Plant response rating, Ryegrass, Italian (Italian ryegrass [10]; 31 g ai/ha): 0
Kochia plant response rating (0 to 100 scale) (kochia [11]; 31 g ai/ha): 40
Plant response rating, Kochia (kochia [11]; [14]): 70
Plant response rating, Barnyardgrass (barnyardgrass [12]): 0
Plant response rating, Barnyardgrass (barnyardgrass [13]; [15]): 20
Plant response rating, Barnyardgrass (barnyardgrass [13]; [14]): 60
Plant response rating, Sedge, Umbrella (sedge, umbrella): 80

CCN(CC)C(=O)c1cccc(Oc2ncc(Cl)cn2)c1-n1cc(C(F)(F)F)cn1 [Compound 263]
Barnyardgrass plant response rating (barnyardgrass [1]): 0
Plant response rating, Pigweed (pigweed [2]; 1000 g ai/ha): 10
Ryegrass, Italian plant response rating (Italian ryegrass [3]): 0
Plant response rating, Ragweed (ragweed [4]; 1000 g ai/ha): 0
Plant response rating, Kochia (kochia [5]; [16]): 10
Plant response rating, Galium (galium; [16]): 10
Foxtail, Giant plant response rating (giant foxtail [6]): 50
Plant response rating, Corn (corn; [16]): 0
Plant response rating, Wheat (wheat; 1000 g ai/ha): 0
Ragweed plant response rating (ragweed [7]): 0
Plant response rating, Blackgrass (blackgrass; [16]): 20
Plant response rating, Foxtail, Giant (giant foxtail [8]; [16]): 0
Pigweed plant response rating (pigweed [9]): 10
Plant response rating, Ryegrass, Italian (Italian ryegrass [10]; 1000 g ai/ha): 0
Kochia plant response rating (kochia [11]): 20
Plant response rating, Barnyardgrass (barnyardgrass [13]; [16]): 0

Fc1cccc(Oc2ncc(Cl)cn2)c1-n1cc(-c2cccc(C(F)(F)F)c2)nn1 [Compound 276]
Barnyardgrass plant response rating (barnyardgrass [1]): 0
Plant response rating, Pigweed (pigweed [2]; 1000 g ai/ha): 80
Ryegrass, Italian plant response rating (Italian ryegrass [3]): 0
Plant response rating, Ragweed (ragweed [4]; 1000 g ai/ha): 30
Plant response rating, Kochia (kochia [5]; [16]): 40
Plant response rating, Galium (galium; [16]): 20
Foxtail, Giant plant response rating (giant foxtail [6]): 0
Plant response rating, Corn (corn; [16]): 10
Plant response rating, Wheat (wheat; 1000 g ai/ha): 0
Ragweed plant response rating (ragweed [7]): 0
Plant response rating, Blackgrass (blackgrass; [16]): 20
Plant response rating, Foxtail, Giant (giant foxtail [8]; [16]): 20
Pigweed plant response rating (pigweed [9]): 0
Plant response rating, Ryegrass, Italian (Italian ryegrass [10]; 1000 g ai/ha): 0
Kochia plant response rating (kochia [11]): 0
Plant response rating, Barnyardgrass (barnyardgrass [13]; [16]): 20
